Columns and labels:
Type in all cases: in vivo
[1] = test system: Meloidogyne incognita; assay: Meloidogyne incognita spray test (MELGIN): leaves of salad and tomato plants sprayed, gall formation 24 days after spraying
Experimental: Solvent: 7 parts by weight of dimethylformamide Emulsifier: alkylaryl polyglycol ether To produce a suitable preparation of active compound, 1 part by weight of active compound is mixed with the stated amount of solvent and is diluted with water, containing an emulsifier concentration of 1000 ppm, to the desired concentration. Further test concentrations are prepared by dilution with emulsifier containing water. Ammonium sulfate and rape oil methyl ester (RME) in a dosage of 1000 ppm are added to the desired concentration. Salad and tomato plants are treated by being sprayed on the leaves with the preparation of the active compound of the desired concentration, the soil surface is covered by a protection film. 3 days after spraying, a suspension containing eggs and larvae of the southern root-knot nematode (Meloidogyne incognita) is added on the soil surface. Galls develop on the roots. 24 days after spraying, the nematicidal activity is determined on the basis of the percentage of gall formation. 100% means no galls were found; 0% means the number of galls found on the roots of the treated plants was equal to that in untreated control plants. […] Test plant: Tomato, Lycopersicon esculentum Test plant: Salad, Lactuca sativa

[2] = test system: Meloidogyne incognita; assay: Meloidogyne incognita test (MELGIN): sand, salad seeds, gall formation after 14 days; conditions: application rate 20 ppm, salad seedlings in sand
Procedure, shortened: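 Compound in acetone was diluted with water and added to sand-filled vessels together with M. incognita eggs and larvae and salad seeds. After 14 days, root galls were scored against untreated controls: 100% means no galls, 0% means galling equal to the control.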

[3] = test system: Meloidogyne incognita; assay: Meloidogyne incognita test: compound solution poured into pots with soil (loamy sand), salad seeds, gall formation after 21 days; conditions: salad in soil
Experimental: Solvent: 7 parts by weight of dimethylformamide Emulsifier: 2.5 parts by weight of alkylarylpolyglycolether To produce a suitable preparation of active compound, 1 part by weight of active compound is mixed with the stated amount of solvent and emulsifier and is diluted with water to the desired concentration. In the calculation of the concentration the soil volume has to be included. […] Further test concentrations are prepared by dilution with water. The compound solution is poured into pots filled with soil (loamy sand). A suspension containing eggs and larvae of the southern root-knot nematode (Meloidogyne incognita) is added, salad seeds are spread on the soil surface and covered with quartz sand. The salad seeds germinate and the seedlings grow. Galls develop on the roots. After 21 days the nematicidal activity is determined on the basis of the percentage of gall formation. 100% means no galls were found; 0% means the number of galls found on the roots of the treated plants was equal to that in untreated control plants.

[4] = test plant Salad, Lactuca sativa, leaf spray 100 ppm
[5] = test plant Salad, Lactuca sativa, leaf spray 1000 ppm
[6] = test plant Salad, Lactuca sativa, leaf spray 2500 ppm
[7] = test plant Tomato, Lycopersicon esculentum, leaf spray 100 ppm
[8] = test plant Tomato, Lycopersicon esculentum, leaf spray 1000 ppm
[9] = test plant Tomato, Lycopersicon esculentum, leaf spray 2500 ppm

## O=C(NS(=O)(=O)c1cc(C(F)(F)F)ccc1Cl)c1cn2cc(C(F)(F)F)sc2n1 [Example I-1-4]
[1]; [4]
  nematicidal activity on the basis of the percentage of gall formation (100% = no galls): 0%
[1]; [5]
  nematicidal activity on the basis of the percentage of gall formation (100% = no galls): 20%
[1]; [6]
  nematicidal activity on the basis of the percentage of gall formation (100% = no galls): 75%
[1]; [7]
  nematicidal activity on the basis of the percentage of gall formation (100% = no galls): 25%
[1]; [8]
  nematicidal activity on the basis of the percentage of gall formation (100% = no galls): 35%
[1]; [9]
  nematicidal activity on the basis of the percentage of gall formation (100% = no galls): 98%
[2]
  nematicidal activity on the basis of the percentage of gall formation (100% = no galls): 100%
[3]; application rate 2 ppm
  nematicidal activity on the basis of the percentage of gall formation (100% = no galls): 97%

## COc1ccc(Cl)c(S(=O)(=O)NC(=O)c2cn3c(C)c(C(F)(F)F)sc3n2)c1 [Example I-1-159]
[1]; [4]
  nematicidal activity on the basis of the percentage of gall formation (100% = no galls): 25%
[1]; [5]
  nematicidal activity on the basis of the percentage of gall formation (100% = no galls): 60%
[1]; [6]
  nematicidal activity on the basis of the percentage of gall formation (100% = no galls): 95%
[1]; [7]
  nematicidal activity on the basis of the percentage of gall formation (100% = no galls): 0%
[1]; [8]
  nematicidal activity on the basis of the percentage of gall formation (100% = no galls): 75%
[1]; [9]
  nematicidal activity on the basis of the percentage of gall formation (100% = no galls): 95%
[2]
  nematicidal activity on the basis of the percentage of gall formation (100% = no galls): 100%
[3]; application rate 2 ppm
  nematicidal activity on the basis of the percentage of gall formation (100% = no galls): 95%

## O=C(NS(=O)(=O)c1ccccc1Cl)c1cn2cc(C(F)(F)C(F)(F)F)sc2n1 [Example I-1-142]
[2]
  nematicidal activity on the basis of the percentage of gall formation (100% = no galls): 100%
[3]; application rate 4 ppm
  nematicidal activity on the basis of the percentage of gall formation (100% = no galls): 80%

## COc1ccc(F)c(S(=O)(=O)NC(=O)c2cn3cc(C(F)(F)F)sc3n2)c1 [Example I-1-27]
[2]
  nematicidal activity on the basis of the percentage of gall formation (100% = no galls): 100%
[3]; application rate 2 ppm
  nematicidal activity on the basis of the percentage of gall formation (100% = no galls): 80%

## Cc1c(C(F)(F)C(F)(F)F)sc2nc(C(=O)NS(=O)(=O)c3c(F)cccc3F)cn12 [Example I-1-252]
[2]
  nematicidal activity on the basis of the percentage of gall formation (100% = no galls): 90%
[3]; application rate 8 ppm
  nematicidal activity on the basis of the percentage of gall formation (100% = no galls): 95%

## O=C(NS(=O)(=O)c1c(Cl)cccc1Cl)c1cn2cc(C(F)(F)F)sc2n1 [Example I-1-10]
[2]
  nematicidal activity on the basis of the percentage of gall formation (100% = no galls): 100%
[3]; application rate 8 ppm
  nematicidal activity on the basis of the percentage of gall formation (100% = no galls): 98%

## COc1ccc(Cl)c(S(=O)(=O)NC(=O)c2cn3cc(C(F)(F)F)sc3n2)c1 [Example I-1-1, N-[(2-chloro-5-methoxyphenyl)sulfonyl]-2-(trifluoromethyl)imidazo[2,1-b][1,3]thiazole-6-carboxamide]
[2]
  nematicidal activity on the basis of the percentage of gall formation (100% = no galls): 100%
[3]; application rate 2 ppm
  nematicidal activity on the basis of the percentage of gall formation (100% = no galls): 95%

## O=C(NS(=O)(=O)c1cc(Br)ccc1Cl)c1cn2cc(C(F)(F)F)sc2n1 [Example I-1-209]
[2]
  nematicidal activity on the basis of the percentage of gall formation (100% = no galls): 100%
[3]; application rate 4 ppm
  nematicidal activity on the basis of the percentage of gall formation (100% = no galls): 90%

## O=C(NS(=O)(=O)c1cc(C(F)(F)F)ccc1Br)c1cn2cc(C(F)(F)C(F)(F)F)sc2n1 [Example I-1-223]
[2]
  nematicidal activity on the basis of the percentage of gall formation (100% = no galls): 100%
[3]; application rate 4 ppm
  nematicidal activity on the basis of the percentage of gall formation (100% = no galls): 80%

## O=C(NS(=O)(=O)c1cc2c(cc1Cl)OC(F)(F)O2)c1cn2cc(C(F)(F)F)sc2n1 [Example I-1-12]
[2]
  nematicidal activity on the basis of the percentage of gall formation (100% = no galls): 100%
[3]; application rate 8 ppm
  nematicidal activity on the basis of the percentage of gall formation (100% = no galls): 95%

## O=C(NS(=O)(=O)c1ccccc1Cl)c1cn2cc(C(F)(F)F)sc2n1 [Example I-1-3]
[2]
  nematicidal activity on the basis of the percentage of gall formation (100% = no galls): 100%
[3]; application rate 2 ppm
  nematicidal activity on the basis of the percentage of gall formation (100% = no galls): 95%

## Cc1c(C(F)(F)F)sc2nc(C(=O)NS(=O)(=O)c3c(Cl)cccc3Cl)cn12 [Example I-1-158]
[1]; [4]
  nematicidal activity on the basis of the percentage of gall formation (100% = no galls): 15%
[1]; [5]
  nematicidal activity on the basis of the percentage of gall formation (100% = no galls): 75%
[1]; [6]
  nematicidal activity on the basis of the percentage of gall formation (100% = no galls): 80%
[1]; [7]
  nematicidal activity on the basis of the percentage of gall formation (100% = no galls): 0%
[1]; [8]
  nematicidal activity on the basis of the percentage of gall formation (100% = no galls): 0%
[1]; [9]
  nematicidal activity on the basis of the percentage of gall formation (100% = no galls): 50%
[2]
  nematicidal activity on the basis of the percentage of gall formation (100% = no galls): 90%
[3]; application rate 2 ppm
  nematicidal activity on the basis of the percentage of gall formation (100% = no galls): 98%
